# Reference: patent US20240293367A1, “METHODS OF TREATING DISORDERS WITH A […]” (Cybin IRL Limited, priority 2023, published 2024)
# Counter-ions that a name gives are not always drawn. Like-named read-outs stand apart in the source and are kept apart here.
# Key:
# MDD patients = settings: cited from earlier work; for placebo subtracted difference in LSM change from baseline on MADRS score: adjunctive to antidepressants; for placebo subtracted difference in (LSM) change from baseline MADRS total score: pivotal clinical studies, package inserts
# [1] = Clinical PD of psilocin after psilocybin (VAS-Any drug effect, MEQ30, 5D-ASC versus psilocin Cmax); type: in vivo, human
# Text: To evaluate potential psychedelic effects at various doses of psilocin-d10, data were summarized/modeled from published literature for psilocin after psilocybin administration.
# First, the VAS—Any drug effect score was modeled based on data from Holze et al. 2022 using a linear effect relationship to determine psilocin plasma concentrations in which a VAS—Any drug effect score of 20, 40, 60, and 80 mm was reached. This relationship is presented graphically in FIG. 4, based on the extraction of mean PK and PD data from the figures in Holze et al. 2022. Here, a linear concentration-effect relationship was identified with no evidence of hysteresis. As is evident from this modeled linear concentration-effect relationship according to Holze et al. 2022 (y=0.17+3.9x), a psilocin plasma concentration of about 15.34 ng/ml is the predicted amount required to achieve VAS-Any drug effect scores above 60 mm, a psilocin plasma concentration of about 17.9 ng/ml is the predicted amount required to achieve VAS-Any drug effect scores above 70 mm, and a psilocin plasma concentration of about 20.47 ng/ml is the predicted amount required to achieve a VAS-Any drug effect score of 80 mm.
# This modeled relationship between psilocin plasma concentration and VAS-Any drug effect score is also in agreement with reported literature studies relating plasma psilocin concentrations (μg/L) to neocortical serotonin 5-HT2A receptor occupancy % and subjective intensity of the psychedelic experience (see Madsen MK, Fisher PM, Burmester D, et al (2019). Psychedelic effects of psilocybin correlate with serotonin 2A receptor occupancy and plasma psilocin levels. Neuropsychopharmacology, 44:1328-34), albeit the Madsen et al. study uses a VAS scoring system related specifically to psychedelic effects. The psilocin concentrations needed to reach the plateau in receptor occupancy and the required VAS scores (psychedelic effects) can be seen graphically in FIG. 5 and FIGS. 6A-6B, which are reproduced from Madsen et al. 2019 (FIGS. 3 and 4, respectively, in Madsen et al. 2019). […]
# [2] = female, rat, in vivo, 40 mg/kg
# [3] = psilocin after psilocybin, Studerus et al. 2011; cited from earlier work
# [4] = 28-day (4-week GLP) toxicology study in dogs, toxicokinetic exposure; settings: dog, in vivo, 0.5 mg/kg; internal 4-week GLP toxicology study; read-out: Dog Cmax at 0.5 mg/kg
# Text: The exposure limits will be applied on mean values within a cohort.
# [5] = linear model of Holze et al. 2022 data
structure (smiles),measurement,setting,value
"CN(C)CCc1c[nH]c2ccccc12 [N,N-dimethyltryptamine (DMT), N,N-dimethyltryptamine]",MADRS CFB reduction over placebo,"MDD patients; intravenous, two-weeks postdose, Small Pharma press release",−7.4
CN(C)C(=O)N[C@H]1CC[C@H](CCN2CCN(c3cccc(Cl)c3Cl)CC2)CC1 [cariprazine],placebo subtracted difference in LSM change from baseline on MADRS score,"MDD patients; 1.5 mg/day fixed dose, 95% CI: −4.2, −0.9",−2.5
same,placebo subtracted difference in LSM change from baseline on MADRS score,"MDD patients; flexible doses of 2-4.5 mg/day, 95% CI: −3.7, −0.6",−2.2
same,placebo subtracted difference in (LSM) change from baseline MADRS total score,MDD patients,−2.2 to −2.5
CCN(CC)C(=O)[C@@]1(c2ccccc2)C[C@H]1CN [levomilnacipram],placebo subtracted difference in (LSM) change from baseline MADRS total score,MDD patients,−3.1 to −4.9
"CN(C)CCc1c[nH]c2cccc(O)c12 [psilocin, 4-hydroxy-N,N-dimethyltryptamine]",psilocin plasma concentration predicted for VAS-Any drug effect scores above 70 mm,[1]; linear concentration-effect model,about 17.9 ng/ml
same,psilocin Cmax / plasma concentration for VAS - Any drug effect: 20,[1]; [5],5.08 ng/mL
same,psilocin Cmax / plasma concentration for VAS - Any drug effect: 40,[1]; [5],10.2 ng/mL
same,Cmax,[2],343 ng/mL
same,psilocin Cmax with no change in list of complaints + 5D-ASC,[3],1.83 ng/mL
same,Cmax,[4],51.7 ng/mL
N#Cc1ccc2[nH]cc(CCCCN3CCN(c4ccc5oc(C(N)=O)cc5c4)CC3)c2c1 [vilazodone hydrochloride],placebo subtracted difference in (LSM) change from baseline MADRS total score,MDD patients,−2.5 to −5.1
Cc1ccc(Sc2ccccc2N2CCNCC2)c(C)c1 [vortioxetine],difference in mean change from baseline of MADRS scores between placebo and drug,"MDD patients; 20 mg, meta-analysis of 11 placebo-controlled trials",4.57
same,placebo subtracted difference in (LSM) change from baseline MADRS total score,MDD patients,−2.8 to −5.9
